Results published in PMC5011961, “In vitro antimicrobial activities of animal-used quinoxaline 1,4-di-N-oxides against mycobacteria, mycoplasma and fungi” (BMC Veterinary Research, 2016).
Converted amounts (≈) assume the structure as drawn. Where two headings read alike, the source gives them in different places.

Assays:
PRRSV = test: Antiviral assay (CPE/MTT; adsorption inhibition, infection inhibition, virucidal); format: cell-based, porcine reproductive and respiratory syndrome virus; design: key to IC50: “--”represent not detected owing to the low inhibition ratio; conditions: for IC50: PRRSV, mean±SD of four experiments
PPV = test: as above; format: cell-based, porcine parvovirus; design: key to IC50: “--” represent not detected owing to the low inhibition ratio; conditions: for IC50: PPV, mean±SD of four experiments
IBDV = test: as above; format: cell-based, infectious bursal disease virus; design: key to IC50: “--” represent not detected owing to the low inhibition ratio; conditions: for IC50: IBDV, mean±SD of four experiments
PK-15 cells = test: Cytotoxicity assay (MTT); conditions: for TC50: PK-15, 72 h, MTT, mean ± SD, n = 4; for MNTC: PK-15, maximum non-cytotoxic concentration (90 % cell viability)
Marc-145 cells = test: Cytotoxicity assay (MTT); conditions: for TC50: Marc-145, 72 h, MTT, mean ± SD, n = 4; for MNTC: Marc-145, maximum non-cytotoxic concentration (90 % cell viability)
DF-1 cells = test: Cytotoxicity assay (MTT); conditions: for TC50: DF-1, 72 h, MTT, mean ± SD, n = 4; for MNTC: DF-1, maximum non-cytotoxic concentration (90 % cell viability)
M. bovis ATCC 19210 = test: microbe, parasite or virus in culture; format: cell-based, Mycobacterium bovis
[1] = tested on: M. tuberculosis H37Rv ATCC 27294; test: Microdilution alamar blue assay (MABA); format: cell-based, Mycobacterium tuberculosis
M. gallisepticum = test: Antimycoplasma assay, MIC in microtiter plates; conditions: Mycoplasmoides gallisepticum
Experimental: Briefly, 96-well microtiter Sensititre plates containing stabilized and freeze-dried antimicrobials were used. Three wells on each plate were set as antimicrobial free growth control. Freshly thawed mycoplasma isolates with known titers were diluted in liquid medium until the number of organisms reached 10^4 color changing units/mL. 50 μL of the diluted culture was transferred into each well of the Sensititre plates. […] The plates were sealed using an adhesive foil and incubated at 36 °C for 14 days. The growth of M. hyopneumoniae was observed daily when the color of the medium changed from red to yellow (phenol red indicator), and the initial and final MICs were recorded.

[2] = Mycobacterium tuberculosis variant bovis, ATCC19210
[3] = Mycobacterium tuberculosis, read-out: MIC
[4] = M. gallisepticum BG44T (10^4ccu/mL)
[5] = M. gallisepticum PG31 (10^8 ccu/mL)
[6] = in words, infection inhibition, virucidal and adsorption inhibition assays

SMILES	IC50 (PRRSV; Inactivation)	IC50 (PRRSV; Prevention)	IC50 (PRRSV; Treatment)	IC50 (PPV; Inactivation)	IC50 (PPV; Prevention)	IC50 (PPV; Treatment)	IC50 (IBDV; Inactivation)	IC50 (IBDV; Prevention)	IC50 (IBDV; Treatment)	TC50 (PK-15 cells) [µg/mL]	MNTC (PK-15 cells) [µg/mL]	TC50 (Marc-145 cells) [µg/mL]	MNTC (Marc-145 cells) [µg/mL]	TC50 (DF-1 cells) [µg/mL]	MNTC (DF-1 cells) [µg/mL]	further results
N#CCC(=O)N/N=C/c1cnc2ccccc2n1 [Cy1, bi-deoxy Cyadox]	--	--	--	--	--	--	--	--	--	23.40 ± 2.14 (≈ 97.8 µM)	2.0	37.83 ± 1.67 (≈ 158 µM)	3.9	32.97 ± 2.35 (≈ 138 µM)	2.0	
CC[C@@H](CO)NCCN[C@@H](CC)CO [Ethambutol, ethambutol]																MIC (M. bovis ATCC 19210; [2]): 0.025 µg/mL (≈ 0.122 µM); MIC [1, 3]: 0.025 µg/mL (≈ 0.122 µM)
NCC[C@H](O)C(=O)N[C@@H]1C[C@H](N)[C@@H](O[C@H]2O[C@H](CN)[C@@H](O)[C@H](O)[C@H]2O)[C@H](O)[C@H]1O[C@H]1O[C@H](CO)[C@@H](O)[C@H](N)[C@H]1O [Amikacin]																MIC (M. bovis ATCC 19210; [2]): 1.6 µg/mL (≈ 2.73 µM); MIC [1, 3]: 3.2 µg/mL (≈ 5.46 µM)
CO[C@@H]1[C@@H](O[C@@H]2O[C@H](C)[C@@H](O[C@H]3C[C@@](C)(O)[C@@H](OC(=O)CC(C)C)[C@H](C)O3)[C@H](N(C)C)[C@H]2O)[C@@H](CC=O)C[C@@H](C)[C@@H](O)/C=C/C=C/C[C@@H](C)OC(=O)C[C@H]1O [Kitasamycin, kitasamycin]																MIC (M. gallisepticum; [4]): 0.05 µg/mL (≈ 0.0636 µM); MIC (M. gallisepticum; [5]): 0.05 µg/mL (≈ 0.0636 µM)
Cc1c(C(C)O)nc2ccccc2[n+]1[O-] (stereo not drawn) [M4, carbonyl reduction N1-deoxy mequindox]	--	--	--	--	--	--	--	--	--	40.81 ± 1.27 (≈ 200 µM)	3.9	128.62 ± 2.67 (≈ 630 µM)	3.9	37.75 ± 2.68 (≈ 185 µM)	1.0	
Cc1nc2ccccc2nc1C(C)O (stereo not drawn) [M5, carbonyl reduction bi-deoxy mequindox]	--	--	--	--	--	--	--	--	--	40.41 ± 3.21 (≈ 215 µM)	2.0	89.66 ± 2.14 (≈ 476 µM)	2.0	38.2 ± 2.09 (≈ 203 µM)	2.0	
[H]/N=C(/N)N[C@H]1[C@H](O)[C@@H](O)[C@H](O[C@@H]2O[C@@H](C)[C@](O)(C=O)[C@H]2O[C@@H]2O[C@@H](CO)[C@H](O)[C@@H](O)[C@@H]2NC)[C@@H](N/C(N)=N\[H])[C@@H]1O [Streptomycin, streptomycin]																MIC (M. bovis ATCC 19210; [2]): 0.013 µg/mL (≈ 0.0224 µM); MIC [1, 3]: 0.025 µg/mL (≈ 0.043 µM)
CN(C)[C@@H]1C(O)=C(C(N)=O)C(=O)[C@@]2(O)C(O)=C3C(=O)c4c(O)cccc4[C@@](C)(O)[C@H]3C[C@@H]12 [Tetracycline, tetracycline]																MIC (M. gallisepticum; [4]): 0.4 µg/mL (≈ 0.9 µM); MIC (M. gallisepticum; [5]): 0.8 µg/mL (≈ 1.8 µM)
CCC[C@@H]1C[C@@H](C(=O)N[C@@H]([C@H]2O[C@H](SC)[C@H](O)[C@@H](O)[C@H]2O)[C@@H](C)O)N(C)C1 [Lincomycin, lincomycin]																MIC (M. gallisepticum; [4]): 8 µg/mL (≈ 19.7 µM); MIC (M. gallisepticum; [5]): 8 µg/mL (≈ 19.7 µM)
N#CCC(=O)N/N=C/c1c[n+]([O-])c2ccccc2n1 [Cy10, N1-deoxy cyadox]	--	--	--	--	--	--	--	--	--	25.27 ± 1.55 (≈ 99 µM)	2.0	33.62 ± 1.85 (≈ 132 µM)	2.0	49.2 ± 1.93 (≈ 193 µM)	2.0	
CC(=O)c1nc2ccccc2nc1C [M1, bi-deoxy Mequindox]	--	--	--	--	--	--	--	--	--	72.90 ± 2.66 (≈ 391 µM)	2.0	70.77 ± 1.57 (≈ 380 µM)	1.0	54.8 ± 1.93 (≈ 294 µM)	1.0	
C[C@H]1c2cccc(O)c2C(=O)C2=C(O)[C@]3(O)C(=O)C(C(N)=O)=C(O)[C@@H](N(C)C)[C@@H]3[C@@H](O)[C@@H]21 [Doxycycline, doxycycline]																MIC (M. gallisepticum; [4]): 0.1 µg/mL (≈ 0.225 µM); MIC (M. gallisepticum; [5]): 0.2 µg/mL (≈ 0.45 µM)
NC(=O)c1ncn([C@@H]2O[C@H](CO)[C@@H](O)[C@H]2O)n1 [Ribavirin, ribavirin]												75.49 ± 2.54 (≈ 309 µM)	8.6	67.42 ± 2.58 (≈ 276 µM)	4.0	IC50 (PRRSV; Porcine reproductive and respiratory syndrome virus, Inactivation, read-out: IC50): 6.29 ± 0.38 µg/mL; IC50 (PRRSV; Porcine reproductive and respiratory syndrome virus, Prevention, read-out: IC50): 9.58 ± 0.56 µg/mL; IC50 (PRRSV; Porcine reproductive and respiratory syndrome virus, Treatment, read-out: IC50): 4.64 ± 0.24 µg/mL; effectiveness against PRRSV in vitro (PRRSV; [6]): good inhibitory activity; IC50 (PPV; Porcine parvovirus, Inactivation, read-out: IC50): 0.85 ± 0.17 µg/mL; IC50 (PPV; Porcine parvovirus, Prevention, read-out: IC50): 0.68 ± 0.15 µg/mL; IC50 (PPV; Porcine parvovirus, Treatment, read-out: IC50): 0.49 ± 0.07 µg/mL; effectiveness against PPV in vitro (PPV; [6]): good inhibitory activity; IC50 (IBDV; Infectious bursal disease virus, Inactivation, read-out: IC50): 1.18 ± 0.21 µg/mL; IC50 (IBDV; Infectious bursal disease virus, Prevention, read-out: IC50): 0.87 ± 0.18 µg/mL; IC50 (IBDV; Infectious bursal disease virus, Treatment, read-out: IC50): 0.58 ± 0.12 µg/mL; effectiveness against IBDV in vitro (IBDV; [6]): good inhibitory activity
N#CCC(=O)N/N=C/c1cnc2ccccc2[n+]1[O-] [Cy2, N4-deoxy cyadox]	--	--	--	--	--	--	--	--	--	51.73 ± 2.96 (≈ 203 µM)	2.0	96.55 ± 3.12 (≈ 378 µM)	2.0	35.48 ± 2.87 (≈ 139 µM)	1.0	
NC[C@H]1O[C@H](O[C@H]2[C@H](O)[C@@H](O[C@H]3O[C@H](CO)[C@@H](O)[C@H](N)[C@H]3O)[C@H](N)C[C@@H]2N)[C@H](O)[C@@H](O)[C@@H]1O [Kanamycin]																MIC (M. bovis ATCC 19210; M. bovis ATCC 19210): 0.2 µg/mL (≈ 0.413 µM); MIC [1]: 0.2 µg/mL (≈ 0.413 µM)
NC(=O)c1cnccn1 [Pyrazinamide, pyrazinamide]																MIC (M. bovis ATCC 19210; [2]): 0.8 µg/mL (≈ 6.5 µM); MIC [1, 3]: 0.8 µg/mL (≈ 6.5 µM)
Cc1c(C(C)O)[n+]([O-])c2ccccc2[n+]1[O-] (stereo not drawn) [M6, carbonyl reduction mequindox]	--	--	--	--	--	--	--	--	--	78.82 ± 3.57 (≈ 358 µM)	2.0	89.82 ± 1.57 (≈ 408 µM)	2.0	41.26 ± 1.27 (≈ 187 µM)	2.0	
CN1C[C@@H]2C[C@H]1CN2c1cc2c(cc1F)c(=O)c(C(=O)O)cn2C1CC1 [Danofloxacin, danofloxacin]																MIC (M. gallisepticum; [4]): 0.05 µg/mL (≈ 0.14 µM); MIC (M. gallisepticum; [5]): 0.05 µg/mL (≈ 0.14 µM)
